ChEMBL document CHEMBL3259599, “Novel colchicine-site binders with a cyclohexanedione scaffold identified through a ligand-based virtual screening approach” (J Med Chem, 2014)
The source made the active and inactive calls. The calls are words filed in the database; no cut-off is given here.

Key:
L1210 = assay: Antiproliferative activity against mouse L1210 cells after 48 to 96 hrs by coulter counter analysis; format: functional, cell-based
[1] = Antiproliferative activity against MBEC after 3 days by coulter counter analysis; format: functional, Mus musculus
HeLa = assay: Antiproliferative activity against human HeLa cells after 4 days by coulter counter analysis; format: functional, cell-based; conditions: 96 h
CCRF-CEM = assay: Antiproliferative activity against human CEM cells after 48 to 96 hrs by coulter counter analysis; format: functional, cell-based
[2] = Antiproliferative activity against HMEC1 after 4 days by coulter counter analysis; format: functional; conditions: Homo sapiens, HMEC-1, 96 h
[3] = Antiproliferative activity against BAEC after 3 days by coulter counter analysis; format: functional; conditions: Bos taurus, 72 h
Tubulin (Homo sapiens) [4] = biological target: T1, Tubulin (Homo sapiens) (UniProt P68371+Q9H4B7+P0DPH7+P68366+Q13509+Q71U36+P04350+Q3ZCM7+P07437+P68363+Q9BQE3+Q6PEY2+Q13885+Q9BVA1+Q9BUF5)
Description: Binding affinity to tubulin (unknown origin)

MDA-MB-231 [5] = assay: Antiproliferative activity against human MDA-MB-231 cells at 0.4 uM after 17 hrs; format: functional, cell-based
MDA-MB-231 [6] = assay: Antiinvasive activity against human MDA-MB-231 cells at 0.4 uM after 17 hrs by Transwell assay; format: functional, cell-based
HMEC-1 [7] = assay: Antivascular activity in HMEC1 cells assessed as destruction of cord like structure at 3 uM after 90 mins by matrigel assay; format: functional, cell-based; conditions: Homo sapiens
HMEC-1 [8] = assay: Induction of apoptosis in HMEC1 at 0.3 uM after 24 hrs by propidium iodide staining-based flow cytometric analysis; format: functional; conditions: Homo sapiens
[9] = Metabolic stability in 50% mouse liver extract assessed as compound remaining at 100 uM measured after 3 hrs by HPLC analysis; format: ADME, tissue-based; conditions: 50% mouse liver extract, read-out: Stability
[10] = Cell cycle arrest in HMEC1 cells assessed as accumulation at G2/M phase at 1 uM after 24 hrs by propidium iodide staining-based flow cytometric analysis; format: functional; conditions: Homo sapiens, HMEC-1
Tubulin (Homo sapiens) [11] = biological target: T1, Tubulin (Homo sapiens); assay: Binding affinity to tubulin in human MDA-MB-231 cells assessed as inhibition of mitotic spindle formation at 1 uM after 8 hrs by DAPI staining-based fluorescence microscopic analysis; format: cell-based
Tubulin (Bos taurus) [12] = biological target: T2, Tubulin (Bos taurus) (UniProt Q6B856+Q862L2+Q862F3); assay: Displacement of MTC from calf brain tubulin colchicine binding site at 20 uM by fluorescence spectroscopic analysis
[13] = Cell cycle arrest in HMEC1 cells assessed as accumulation at subG1 phase at 1 uM after 24 hrs by propidium iodide staining-based flow cytometric analysis; format: functional; conditions: Homo sapiens, HMEC-1
MDA-MB-231 [14] = assay: Competitive binding affinity to beta-tubulin in human MDA-MB-231 cells assessed as inhibition of protein-N/N'-ethylene-bis(iodoacetamide) adduct formation at 10 uM preincubated for 16 hrs followed by N/N'-ethylene-bis(iodoacetamide) formation measured after 1.5 hrs by Western blot analysis; format: cell-based
MDA-MB-231 [15] = assay: Antimigratory activity against human MDA-MB-231 cells at 0.4 uM after 17 hrs by Transwell assay; format: functional, cell-based
[16] = Metabolic stability in 10% human serum assessed as compound remaining at 100 uM measured after 3 hrs by HPLC analysis; format: ADME; conditions: 10% human serum, read-out: Stability
Tubulin (Bos taurus) [17] = biological target: T2, Tubulin (Bos taurus); assay: Displacement of R-PT from calf brain tubulin at 25 degC by fluorescence spectroscopic analysis

Structure (SMILES)	IC50 (L1210) [µM]	IC50 [1] [µM]	IC50 (HeLa) [µM]	IC50 (CCRF-CEM) [µM]	IC50 [2] [µM]	IC50 [3] [µM]	further results
CCCC(Nc1ccccc1C)=C1C(=O)CC(c2ccccc2)CC1=O (centres undefined)	41	47	> 100	≥ 100	44	46	–
CC(Nc1cccc(F)c1F)=C1C(=O)CC(c2ccccc2)CC1=O (centres undefined)	19	12	36	25	10	14	–
CCC(Nc1ccc2c(c1)OCO2)=C1C(=O)CC(c2ccccc2)CC1=O (centres undefined)	38	50	76	53	53	43	–
COC(=O)Nc1nc2cc(C(=O)c3cccs3)ccc2[nH]1	–	–	–	–	–	–	Ka (Tubulin (Homo sapiens) [4]): 4 ×10⁵ /M
COc1ccccc1NC(C)=C1C(=O)CC(c2ccccc2)CC1=O (centres undefined)	0.16	0.12	0.18	0.18	0.09	0.09	Activity (MDA-MB-231 [5]): Active; inhibition (MDA-MB-231 [6]): Active; Activity (HMEC-1 [7]): Active; Activity (HMEC-1 [8]): Active; remaining at 3 h, 100 µM [9]: > 90%; Activity [10]: Active; inhibition (Tubulin (Homo sapiens) [11]): Active; inhibition (Tubulin (Bos taurus) [12]): Active; Activity [13]: Active; inhibition (MDA-MB-231 [14]): Active; inhibition (MDA-MB-231 [15]): Active; remaining at 3 h, 100 µM [16]: 70%; Ka (Tubulin (Bos taurus) [17]): 9.6 ×10⁶ /M
CCC(Nc1ccc(O)cc1)=C1C(=O)CC(c2ccccc2)CC1=O (centres undefined)	14	18	79	34	28	36	–
COc1ccccc1NC(C)=C1C(=O)CC(c2ccc(C)cc2)CC1=O (centres undefined)	> 100	9.2	90	> 100	11	8.4	–
COc1ccccc1NC(C)=C1C(=O)CC(Cc2ccccc2)CC1=O (centres undefined)	> 100	87	> 100	> 100	22	> 100	–
COc1ccccc1NC(C)=C1C(=O)CC(c2c(F)cccc2F)CC1=O (centres undefined)	> 100	60	> 100	> 100	39	> 100	–
COc1ccccc1NC(C)=C1C(=O)CC(c2c(C)cccc2C)CC1=O (centres undefined)	24	39	55	23	35	41	–
COc1ccccc1NC(C)=C1C(=O)CC(C2CCCCC2)CC1=O (centres undefined)	> 8	21	11	15	12	12	–
